Reference: patent US12302841B2, “Soybean variety comprising high content of epicatechin” (AMOREPACIFIC CORPORATION, priority 2020, dated 2025)

What was measured:
[1] = test system: collagenase (MMP-1); test: Collagenase (MMP-1) expression inhibition test in human fibroblasts; format: cell-based; conditions: 10 μg/mL in serum-free DMEM, 24 hours, relative to untreated group
Protocol: In order to investigate the antiaging activity of the extract of the Aritaunkong bred in Example 1, the collagenase (MMP-1) expression-inhibiting effect of each of the soybean extracts prepared in Preparation Example was assessed. Specifically, after placing human fibroblasts (Cascade Biologics, Portland, OR, USA) on a 96-well microtiter plate containing DMEM (Dulbecco's modified Eagle's medium) supplemented with 2.5 wt % of fetal bovine serum at 5,000 cells/well, the cells were cultured until ˜90% confluency. Then, after culturing the cells in serum-free DMEM for 24 hours and treating with each of the three soybean extracts of Preparation Example or EGCG (Sigma-Aldrich) as a positive control group, dissolved in serum-free DMEM to 10 μg/mL, for 24 hours, the cell culture was collected. Subsequently, the degree of collagenase production in the collected cell culture was measured using a collagenase measurement kit (Amersham Pharmacia, USA). First, after placing the collected cell culture on a 96-well plate on which a primary collagenase antibody is coated uniformly, antigen-antibody reaction was conducted for 3 hours in a constant-temperature bath (36° C.). […] Collagenase expression inhibition (%)=(1−absorbance of substance-treated cell group/absorbance of control group)×100 [Equation 1]

[2] = Antioxidant activity test through DPPH reduction (DPPH radical-scavenging ability); format: biochemical; conditions: 100 μM DPPH in ethanol, 37° C. for 30 minutes, absorbance at 540 nm; sample concentration at which absorbance decreased by 50%
Protocol: In order to investigate the antioxidant activity of the extract of the Aritaunkong bred in Example 1, the DPPH (1,1-diphenyl-2-picrylhydrazyl) oxidation-inhibiting effect of each soybean extract prepared in Preparation Example was compared by monitoring the change in absorbance occurring as a result of reduction of DPPH. Specifically, after preparing 190 μL of a 100 μM (in ethanol) DPPH solution and the soybean extract of Preparation Example and the synthetic antioxidant Trolox (positive control group) to a concentration of 10,000 ppm, they were diluted to final concentrations of 500 ppm, 250 ppm, 125 ppm, 62.5 ppm, 31.25 ppm and 15.63 ppm. After preparing […] reaction solutions by mixing them, absorbance was measured at 540 nm after incubation at 37° C. for 30 minutes. The IC50 indicates the sample concentration when the absorbance was decreased by 50% due to the addition of the sample.

Row | SMILES | Collagenase expression inhibition (%) [1] | DPPH radical-scavenging ability (IC50) [2]
1 | O=C(O[C@@H]1Cc2c(O)cc(O)cc2O[C@@H]1c1cc(O)c(O)c(O)c1)c1cc(O)c(O)c(O)c1 [EGCG] | 60.8% | 
2 | Cc1c(C)c2c(c(C)c1O)CCC(C)(C(=O)O)O2 (centres unmarked) [Trolox] |  | 53.2 ppm
